Measured values from patent publication US6184230A, “Anti-helicobacter pylori pharmaceutical composition” (Yamanouchi Pharmaceutical Co., Ltd., priority 1997, dated 2001).
In brackets after ≈: the same amount, converted by molar mass.

Experiments:
Assay type in all cases: cell-based
[1] = tested on: Helicobacter pylori ATCC 43504; test: Measurement of antibacterial activity (in vitro, MIC on Brucella agar), Example 2; conditions: ATCC43504, Brucella agar medium (0.1% β-cyclodextrin), 37° C., 3 days (72 hours), N2 80%, CO2 15%, O2 5%
Experimental: An in vitro test of the aforementioned substance was carried out in the following manner.
Measurement of antibacterial activity
(§1) Preparation of Antibacterial Substance-containing Agar Plate
(§2) The substance to be evaluated was dissolved in 100% dimethyl sulfoxide (DMSO) and diluted by 2-fold serial dilution. Each of the dilution solutions was put into a sterilized round Petri dish and mixed with 10 ml of Brucella agar medium (0.1% β-cyclodextrin) which had been sterilized and kept at 50° C., and the mixture was solidified. Final concentration of DMSO becomes 1% or less.
(§3) Preparation of Inoculation Material and Judgment of Test Results
A Helicobacter pylori strain, for example Helicobacter pylori ATCC 43504, was cultured at 37° C. for 3 days in a multi gas incubator (N2 : 80%, CO2 : 15%, O2: 5 %) using Brucella agar medium (containing 5% calf serum albumin) and then prepared into a cell suspension of about 10^8 cells/1 ml using Brucella broth based on its turbidity. The cell suspension was diluted 100 times with Brucella broth, and about 5 μl portion of the dilution was inoculated onto the surface of the drug-containing agar medium using a microplanter. The thus inoculated agar plate was cultured at 37° C. for 3 days (72 hours) in the aforementioned multi gas incubator. […]

Escherichia coli 0-1 = test: In vitro test on facultative anaerobes and aerobes (MIC), Example 3; conditions: 01; Escherichia coli 0-1, Muller-Hinton agar, 37° C., 18 hours
Experimental: (§4) An in vitro test on facultative anaerobes and aerobes was carried out in the following manner.
as §1
as §2, with “Muller-Hinton” for “Brucella”, “medium” for “medium (0.1% β-cyclodextrin)”
as §3
(§5) Each strain to be tested was cultured overnight in an incubator set at 37° C. using Muller-Hinton broth, and the resulting broth was diluted to a density of about 10^6 cells/1 ml using Muller-Hinton broth. About 5 μl portion of the dilution was inoculated onto the surface of the drug-containing agar medium using a microplanter. The thus inoculated agar plate was cultured at 37° C. for 18 hours in an incubator. After completion of the culturing, the agar plate was observed, and the minimum drug concentration by which cell growth was not observed was defined as MIC.

[2] = tested on: Pseudomonas aeruginosa NCTC 10490; test: as above; conditions: NCTC10490; Pseudomonas aeruginosa NCTC 10490, Muller-Hinton agar, 37° C., 18 hours
Experimental: as §4, §1
as §2, with “Muller-Hinton” for “Brucella”, “medium” for “medium (0.1% β-cyclodextrin)”
as §3, §5

[3] = tested on: Staphylococcus aureus FDA 209P; test: as above; conditions: FDA209P, Muller-Hinton agar, 37° C., 18 hours
Experimental: as §4, §1
as §2, with “Muller-Hinton” for “Brucella”, “medium” for “medium (0.1% β-cyclodextrin)”
as §3, §5

[4] = tested on: Bacteroides fragiris GAI 5562; test: In vitro test on anaerobes (MIC), Example 4; conditions: GAI5562, 18 h
Experimental: (§6) An in vitro test on anaerobes was carried out in the following manner.
as §1
as §2, with “GAM” for “Brucella”, “medium” for “medium (0.1% β-cyclodextrin)”
as §3
(§7) Each strain to be tested was cultured overnight at 37° C. in GAM broth using an anaerobic culturing apparatus whose inside atmosphere had been replaced with a mixed gas system of 80% N2, 10% CO2 and 10% H2, and the resulting broth was diluted to a density of about 10^6 cells/1 ml using the same GAM broth. About 5 μl portion of the dilution was inoculated onto the surface of the drug-containing agar medium using a microplanter. The thus inoculated agar plate was cultured at 37° C. for 18 hours using the anaerobic culturing apparatus. After completion of the culturing, the agar plate was observed, and the minimum drug concentration by which cell growth was not observed was defined as MIC.

[5] = tested on: Bifidobacterium bifidum CAYA 21-1; test: In vitro test on anaerobes (MIC), Example 4; conditions: CAYA211, 18 h
Experimental: as §6, §1
as §2, with “GAM” for “Brucella”, “medium” for “medium (0.1% β-cyclodextrin)”
as §3, §7

[6] = tested on: Peptostreptococcus productus CAYA 12-2; test: In vitro test on anaerobes (MIC), Example 4; conditions: Blautia producta, CAYA122, 18 h
Experimental: as §6, §1
as §2, with “GAM” for “Brucella”, “medium” for “medium (0.1% β-cyclodextrin)”
as §3, §7

Helicobacter pylori = test: Anti-Helicobacter pylori activity (general statement)
other bacteria = test: Selectivity, influence upon other bacteria (general statement)

Compound | MIC [1] | MIC (Escherichia coli 0-1) | MIC [2] | MIC [3] | MIC [4] | MIC [5] | MIC [6] | anti-Helicobacter pylori activity (Helicobacter pylori) | influences upon other bacteria (other bacteria) | selectivity (other bacteria)
CCCCCC/C=C/Cc1c(C)c(=O)c2ccccc2n1O [1-hydroxy-2-(2-trans-nonenyl)-3-methyl-4(1H)-quinolone] | 0.025 µg/mL (≈ 0.0835 µM) | ≥ 12.5 µg/mL | ≥ 12.5 µg/mL | ≥ 12.5 µg/mL | > 25 µg/mL | > 25 µg/mL | > 25 µg/mL |  |  | 
CCCCCC/C=C/Cc1c(C)c(=O)c2ccccc2n1O [YL-02729S] |  |  |  |  |  |  |  | excellent anti-Helicobacter pylori activity | does not exert influences upon other bacteria | high selectivity
